These results are taken from US6339045B1, “N-(unsubstituted or substituted)-4-substituted-6-(unsubstituted or substituted)phenoxy-2-pyridinecarboxamides or thiocarboxamides, processes for producing the same, and herbicides” (Kureha Kagaku Kogyo Kabushiki Kaisha, priority 1995, dated 2002).

Common to all, as to assay: Herbicidal effect by foliage and soil treatment
Type in all cases: in vivo
What all share (conditions): 10 g ai/10a, evaluated after 14 days

For experiment [1], the system named is sicklepod (Cassia obtusifolia). The procedure, abridged:
(§1)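 Seedlings grown in granular soil in a 19–25 °C greenhouse to the cotyledon–two-leaf stage were sprayed over foliage and soil with compound in Tween 20/water at a set application rate. Growth was scored on a rating scale against untreated plants after 14 days.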

Experiment [2] concerns black nightshade (Solanum nigrum). The gist of the method:
as §1

Experiment [3] relates to common blackjack (Bidens pilosa). The procedure, abridged: as §1
Experiment [4] deals with cleavers (Galium aparine). The gist of the method: as §1
Experiment [5] relates to wild chamomile (Matricaria chamomilla). The gist of the method:
as §1

Experiment [6] concerns ivyleafspeedwell (Veronica hederaefolia). The gist of the method:
as §1

The test system of experiment [7] is kediock (Sinapis arvensis). The procedure, abridged: as §1
The subject of experiment [8] is common chickweed (Stellaria media). The gist of the method:
as §1

The subject of experiment [9] is redroot pigweed (Amaranthus retroflexus). The gist of the method: as §1
The subject of experiment [10] is field bindweed (Convolvulus arvensis). The gist of the method: as §1
For experiment [11], the system named is velvetleaf (Abutilon theophrasti). The procedure, abridged: as §1

Structures are written as SMILES.

Consider `COc1cc(Oc2cccc(OC(F)(F)F)c2)nc(C(=O)Nc2ccccc2)c1` [Compound I-20, N-phenyl-4-methoxy-6-{3-(trifluoromethoxy)phenoxy}-2-pyridine carboxamide], for which the “herbicidal activity rating, CO (Cassia obtusifolia)” value (“herbicidal activity rating, CO” for short) in experiment [1] is recorded as 5 (percentage of weeds killed was not less than 80%). For the same compound, the “herbicidal activity rating, SN (Solanum nigrum)” value (“herbicidal activity rating, SN” for short) in experiment [2] is on record as 5 (percentage of weeds killed was not less than 80%). Also, the “herbicidal activity rating, BP (Bidens pilosa)” value (“herbicidal activity rating, BP” for short) in experiment [3] is listed as 5 (percentage of weeds killed was not less than 80%). Further, the “herbicidal activity rating, GA (Galium aparine)” value (shortened to “herbicidal activity rating, GA”) in experiment [4] is recorded as 5 (percentage of weeds killed was not less than 80%). In addition, in experiment [5], the “herbicidal activity rating, MC (Matricaria chamomilla)” value (from here on “herbicidal activity rating, MC”) was 4 (percentage of weeds killed was not less than 60% and less than 80%). Besides, the “herbicidal activity rating, VH (Veronica hederaefolia)” value (shortened to “herbicidal activity rating, VH”) in experiment [6] is reported as 5 (percentage of weeds killed was not less than 80%). Further, the “herbicidal activity rating, SA (Sinapis arvensis)” value (“herbicidal activity rating, SA” below) in [7] is reported as 5 (percentage of weeds killed was not less than 80%). Besides, in experiment [8], the “herbicidal activity rating, SM (Stellaria media)” value (“herbicidal activity rating, SM” below) is 5 (percentage of weeds killed was not less than 80%). In [9], the “herbicidal activity rating, AR (Amaranthus retroflexus)” value (from here on “herbicidal activity rating, AR”) is on record as 5 (percentage of weeds killed was not less than 80%). For the same compound, the “herbicidal activity rating, CA (Convolvulus arvensis)” value (“herbicidal activity rating, CA” for short) in experiment [10] was 4 (percentage of weeds killed was not less than 60% and less than 80%). For the same compound, the “herbicidal activity rating, AT (Abutilon theophrasti)” value in experiment [11] was 4 (percentage of weeds killed was not less than 60% and less than 80%).

For the compound `COc1cc(Oc2cccc(C(F)(F)F)c2)nc(C(=O)N2CC2C)c1` (centres unmarked) [Compound I-300, 4-methoxy-2-{N-(2-methylaziridinyl)carbonyl}-6-{3-(trifluoromethyl)phenoxy}-2-pyridine], in [1], the “herbicidal activity rating, CO” value is given as 5 (percentage of weeds killed was not less than 80%). For the same compound, in experiment [2], the “herbicidal activity rating, SN” value is given as 5 (percentage of weeds killed was not less than 80%). Besides, in experiment [3], the “herbicidal activity rating, BP” value is recorded as 5 (percentage of weeds killed was not less than 80%). Besides, the “herbicidal activity rating, GA” value in experiment [4] was 5 (percentage of weeds killed was not less than 80%). Also, the “herbicidal activity rating, MC” value in experiment [5] is 2 (percentage of weeds killed was not less than 20% and less than 40%). Besides, the “herbicidal activity rating, VH” value in [6] is 5 (percentage of weeds killed was not less than 80%). Besides, the “herbicidal activity rating, SA” value in experiment [7] is 5 (percentage of weeds killed was not less than 80%). For the same compound, the “herbicidal activity rating, SM” value in experiment [8] is recorded as 5 (percentage of weeds killed was not less than 80%). Also, the “herbicidal activity rating, AR” value in [9] is given as 5 (percentage of weeds killed was not less than 80%). Besides, the “herbicidal activity rating, CA” value in experiment [10] was 4 (percentage of weeds killed was not less than 60% and less than 80%). Also, the “herbicidal activity rating, AT (Abutilon theophrasti)” value in experiment [11] is 4 (percentage of weeds killed was not less than 60% and less than 80%).

Consider `CC(C)NC(=O)c1cc(N(C)Cc2ccccc2)cc(Oc2cccc(C(F)(F)F)c2)n1` [Compound I-58, N-(i-propyl)-4-{methyl(phenylmethyl)amino}-6-{3-(trifluoromethyl)phenoxy}-2-pyridine carboxamide], for which the “herbicidal activity rating, CO” value in experiment [1] is 5 (percentage of weeds killed was not less than 80%). The “herbicidal activity rating, SN” value in [2] was 5 (percentage of weeds killed was not less than 80%). In addition, the “herbicidal activity rating, BP” value in [3] is 2 (percentage of weeds killed was not less than 20% and less than 40%). The “herbicidal activity rating, GA” value in experiment [4] is 5 (percentage of weeds killed was not less than 80%). Also, the “herbicidal activity rating, MC” value in [5] was 3 (percentage of weeds killed was not less than 40% and less than 60%). The “herbicidal activity rating, VH” value in experiment [6] is on record as 5 (percentage of weeds killed was not less than 80%). For the same compound, the “herbicidal activity rating, SA” value in experiment [7] is reported as 5 (percentage of weeds killed was not less than 80%). For the same compound, the “herbicidal activity rating, SM” value in [8] was 4 (percentage of weeds killed was not less than 60% and less than 80%). For the same compound, the “herbicidal activity rating, AR” value in [9] is listed as 5 (percentage of weeds killed was not less than 80%). Also, the “herbicidal activity rating, CA” value in [10] was 5 (percentage of weeds killed was not less than 80%). Further, the “herbicidal activity rating, AT (Abutilon theophrasti)” value in experiment [11] was 4 (percentage of weeds killed was not less than 60% and less than 80%).

As for `COc1cc(Oc2cccc(C(F)(F)F)c2)nc(C(=O)NO)c1` [Compound I-96, N-hydroxy-4-methoxy-6-{3-(trifluoromethyl)phenoxy}-2-pyridine carboxamide], the “herbicidal activity rating, CO” value in experiment [1] is recorded as 5 (percentage of weeds killed was not less than 80%). Further, the “herbicidal activity rating, SN” value in [2] is on record as 5 (percentage of weeds killed was not less than 80%). The “herbicidal activity rating, BP” value in experiment [3] is 4 (percentage of weeds killed was not less than 60% and less than 80%). Further, the “herbicidal activity rating, GA” value in experiment [4] is 5 (percentage of weeds killed was not less than 80%). In experiment [5], the “herbicidal activity rating, MC” value is given as 1 (percentage of weeds killed was less than 20%). Also, in experiment [6], the “herbicidal activity rating, VH” value is 5 (percentage of weeds killed was not less than 80%). The “herbicidal activity rating, SA” value in experiment [7] is reported as 5 (percentage of weeds killed was not less than 80%). Moreover, in [8], the “herbicidal activity rating, SM” value is given as 5 (percentage of weeds killed was not less than 80%). Besides, the “herbicidal activity rating, AR” value in experiment [9] was 5 (percentage of weeds killed was not less than 80%). Moreover, the “herbicidal activity rating, CA” value in experiment [10] was 3 (percentage of weeds killed was not less than 40% and less than 60%). Further, the “herbicidal activity rating, AT (Abutilon theophrasti)” value in experiment [11] is 3 (percentage of weeds killed was not less than 40% and less than 60%).

On to `COc1cc(Oc2cccc(C(F)(F)F)c2)nc(C(=O)NCCS(C)(=O)=O)c1` [Compound I-63], for which the “herbicidal activity rating, CO” value in experiment [1] was 5 (percentage of weeds killed was not less than 80%). Also, the “herbicidal activity rating, SN” value in [2] is recorded as 5 (percentage of weeds killed was not less than 80%). For the same compound, the “herbicidal activity rating, BP” value in [3] was 4 (percentage of weeds killed was not less than 60% and less than 80%). For the same compound, the “herbicidal activity rating, GA” value in [4] was 5 (percentage of weeds killed was not less than 80%). Further, in experiment [5], the “herbicidal activity rating, MC” value is 4 (percentage of weeds killed was not less than 60% and less than 80%). Moreover, the “herbicidal activity rating, VH” value in [6] is recorded as 5 (percentage of weeds killed was not less than 80%). For the same compound, the “herbicidal activity rating, SA” value in experiment [7] was 5 (percentage of weeds killed was not less than 80%). The “herbicidal activity rating, SM” value in [8] is given as 5 (percentage of weeds killed was not less than 80%). Also, in experiment [9], the “herbicidal activity rating, AR” value is recorded as 5 (percentage of weeds killed was not less than 80%). Further, the “herbicidal activity rating, CA” value in experiment [10] was 5 (percentage of weeds killed was not less than 80%). The “herbicidal activity rating, AT (Abutilon theophrasti)” value in [11] is 4 (percentage of weeds killed was not less than 60% and less than 80%).

On to `COc1cc(Oc2cccc(C(F)(F)F)c2)nc(C(=O)NCCCCl)c1` [Compound I-79], for which the “herbicidal activity rating, CO” value in experiment [1] is reported as 5 (percentage of weeds killed was not less than 80%). Besides, the “herbicidal activity rating, SN” value in [2] is 5 (percentage of weeds killed was not less than 80%). Further, the “herbicidal activity rating, BP” value in [3] is listed as 5 (percentage of weeds killed was not less than 80%). Besides, the “herbicidal activity rating, GA” value in [4] was 5 (percentage of weeds killed was not less than 80%). Also, the “herbicidal activity rating, MC” value in experiment [5] is given as 5 (percentage of weeds killed was not less than 80%). Further, the “herbicidal activity rating, VH” value in experiment [6] is given as 5 (percentage of weeds killed was not less than 80%). For the same compound, the “herbicidal activity rating, SA” value in experiment [7] was 5 (percentage of weeds killed was not less than 80%). In addition, the “herbicidal activity rating, SM” value in [8] is recorded as 5 (percentage of weeds killed was not less than 80%). Besides, the “herbicidal activity rating, AR” value in [9] is 5 (percentage of weeds killed was not less than 80%). For the same compound, in experiment [10], the “herbicidal activity rating, CA” value is 4 (percentage of weeds killed was not less than 60% and less than 80%). Moreover, the “herbicidal activity rating, AT (Abutilon theophrasti)” value in [11] is 5 (percentage of weeds killed was not less than 80%).

With `COc1cc(Oc2cccc(C(F)(F)F)c2)nc(C(=O)NCC(F)(F)C(F)(F)C(F)(F)F)c1` [Compound I-80], the “herbicidal activity rating, CO” value in experiment [1] was 5 (percentage of weeds killed was not less than 80%). In addition, the “herbicidal activity rating, SN” value in experiment [2] is 5 (percentage of weeds killed was not less than 80%). The “herbicidal activity rating, BP” value in experiment [3] is on record as 5 (percentage of weeds killed was not less than 80%). Besides, the “herbicidal activity rating, GA” value in [4] is 5 (percentage of weeds killed was not less than 80%). The “herbicidal activity rating, MC” value in experiment [5] was 5 (percentage of weeds killed was not less than 80%). Also, the “herbicidal activity rating, VH” value in experiment [6] is reported as 5 (percentage of weeds killed was not less than 80%). In experiment [7], the “herbicidal activity rating, SA” value is reported as 5 (percentage of weeds killed was not less than 80%). In addition, the “herbicidal activity rating, SM” value in [8] was 5 (percentage of weeds killed was not less than 80%). Also, the “herbicidal activity rating, AR” value in experiment [9] was 5 (percentage of weeds killed was not less than 80%). Further, in [10], the “herbicidal activity rating, CA” value is listed as 5 (percentage of weeds killed was not less than 80%). In addition, in experiment [11], the “herbicidal activity rating, AT (Abutilon theophrasti)” value was 5 (percentage of weeds killed was not less than 80%).
